Assay results from publication PMC10575960, “Functional characterization of a lytic polysaccharide monooxygenase from Schizophyllum commune that degrades non-crystalline substrates” (Scientific Reports, 2023).
pKd: −log10 of the molar value.

Experiments:
NcLPMO9C = biological target: T1, NcLPMO9C (Neurospora crassa, UniProt Q7SHI8); experiment: HPAEC-PAD product analysis; assay type: biochemical; conditions: 1 mM substrate, 1 µM LPMO, 1 mM ascorbic acid, 50 mM BisTris-HCl pH 6.5, 40 °C, 16 h
T1 construct: gene gh61-3; CBM1-containing enzyme, produced in Pichia pastoris as described earlier, copper-saturated
T1 sequence (Q7SHI8 17-359): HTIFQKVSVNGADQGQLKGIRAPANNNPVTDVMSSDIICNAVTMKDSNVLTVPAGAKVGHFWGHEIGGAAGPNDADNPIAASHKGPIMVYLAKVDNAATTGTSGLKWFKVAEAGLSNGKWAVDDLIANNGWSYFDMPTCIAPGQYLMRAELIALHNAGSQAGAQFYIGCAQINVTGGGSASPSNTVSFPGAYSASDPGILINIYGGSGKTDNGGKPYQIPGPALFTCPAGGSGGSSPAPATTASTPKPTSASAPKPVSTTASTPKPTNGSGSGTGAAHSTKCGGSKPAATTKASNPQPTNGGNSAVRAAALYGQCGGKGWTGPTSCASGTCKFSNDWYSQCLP

ScLPMO9A = biological target: T2, ScLPMO9A (Schizophyllum commune, UniProt D8Q364); experiment: NMR titration, […]-HSQC chemical shift perturbation; assay type: binding; conditions: copper-free apo enzyme, 15N-labelled, 25 mM Tris-HCl pH 7.0, 25 mM NaCl, 2.3% glycerol, 25 °C
T2 construct: gene LPMO9A; residues 20-247, pelB signal peptide for periplasmic export, E. coli T7 Express, no tag told; single domain without CBM; 15N-labelled copper-free (apo) protein for NMR
T2 sequence (D8Q364 20-247): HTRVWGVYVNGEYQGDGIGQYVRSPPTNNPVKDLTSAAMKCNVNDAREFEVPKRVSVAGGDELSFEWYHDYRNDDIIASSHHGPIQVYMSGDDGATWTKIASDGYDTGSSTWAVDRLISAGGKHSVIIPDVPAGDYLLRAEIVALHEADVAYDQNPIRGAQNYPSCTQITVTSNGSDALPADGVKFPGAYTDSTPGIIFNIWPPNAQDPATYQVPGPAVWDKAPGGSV

| pKd (ScLPMO9A; range from four 1H-15N signals) | pKd (ScLPMO9A; range from two 1H-15N signals) | SMILES | HPAEC-PAD product analysis (NcLPMO9C) |
| --- | --- | --- | --- |
| 4.40 to 5.00 |  | OC[C@H]1O[C@@H](O[C@H]2[C@H](O)[C@@H](O)[C@H](O[C@H]3[C@H](O)[C@@H](O)[C@H](O[C@H]4[C@H](O)[C@@H](O)[C@H](O[C@H]5[C@H](O)[C@@H](O)[C@H](O[C@H]6[C@H](O)[C@@H](O)C(O)O[C@@H]6CO)O[C@@H]5CO)O[C@@H]4CO)O[C@@H]3CO)O[C@@H]2CO)[C@H](O)[C@@H](O)[C@@H]1O (stereo partly shown) [cellohexaose] | With cellohexaose (Glc6), NcLPMO9C generated primarily Glc4gemGlc and cellotetraose |
|  | 4.30 to 4.52 | OC[C@H]1O[C@@H](O[C@H]2[C@H](O)[C@@H](O)[C@H](O[C@H]3[C@H](O)[C@@H](O)[C@H](O[C@H]4[C@H](O)[C@@H](O)[C@H](O[C@H]5[C@H](O)[C@@H](O)C(O)O[C@@H]5CO)O[C@@H]4CO)O[C@@H]3CO)O[C@@H]2CO)[C@H](O)[C@@H](O)[C@@H]1O (stereo partly shown) [cellopentaose] |  |
|  |  | OC[C@H]1O[C@@H](O[C@H]2[C@H](O)[C@@H](O)[C@H](O[C@H]3[C@H](O)[C@@H](O)[C@H](O[C@H]4[C@H](O)[C@@H](O)C(O)O[C@@H]4CO)O[C@@H]3CO)O[C@@H]2CO)[C@H](O)[C@@H](O)[C@@H]1O (stereo partly shown) [cellotetraose] | NcLPMO9C showed limited activity on cellotetraose (Glc4) |
